Data published in US8211909B2, “Treatment of antibiotic-resistant bacteria infection” (TaiGen Biotechnology Co., Ltd., priority 2008, dated 2012).
Values after ≈ are worked out from the molar mass of the structure shown. Like-named read-outs stand apart in the source and are kept apart here.

Key:
[1] = system: Methicillin-resistant Staphylococcus aureus (MRSA) isolates; test: MIC by broth microdilution (CLSI) against CAN-ICU MRSA isolates; type: cell-based; details: for MIC50 / MIC90 / MIC: Staphylococcus aureus; for MIC50: read-out: MIC50; for MIC90: read-out: MIC90
From the text: MRSA isolates (n=193) were obtained as part of the Canadian National Intensive Care Unit (CAN-ICU) Study. 19 medical centers from all regions of Canada with active ICUs participated in the CAN-ICU study included. They were requested to only obtain “clinically significant” specimens from patients with a presumed infectious disease. Surveillance swabs, eye, ear, nose and throat swabs were excluded. Anaerobic organisms and fungal organisms were also excluded.
From September 2005-June 2006 (inclusive), each center collected a maximum of 300 consecutive pathogens isolated from blood, urine, tissue/wound, and respiratory specimens (one pathogen per cultured site per patient) of ICU patients. These isolates were shipped to the reference laboratory (Health Sciences Centre, Winnipeg, Canada) on Amies charcoal swabs, subcultured in appropriate media, and stocked in skim milk at −80° C.
All isolates underwent mecA PCR, as well as molecular characterization (including PVL analysis and fingerprinting), as previously described, to assess whether they were community-associated or healthcare-associated (Christianson et al., J Clin Microbiol. 2007, 45 (6): 1904-11; Mulvey et al., J Clin. Microbiol. 2001, 39(10): 3481-5; Mulvey et al., Emerg Infect Dis. 2005,11(6): 844-50; Oliveira et al., Antimicrob Agents Chemother. 2002, 46(7): 2155-61). The isolates were also subtyped using pulsed-field gel electrophoresis (PFGE) following the Canadian standardized protocol as previously described (Mulvey et al., J Clin Microbiol. 2001, 39(10): 3481-5). Their PFGE fingerprints thus obtained were analyzed with BioNumerics v3.5 (Applied Maths St. Marten-Latem, Belgium) using a position tolerance of 1.0 and an optimization of 1.0. Strain relatedness was determined as previously described (Tenover et al., 1995). The fingerprints of the isolates were compared to the national MRSA fingerprint database and were grouped into one of 10 Canadian epidemic MRSA (CMRSA-1, CMRSA-2, etc) as previously described (Mulvey et al., Emerg Infect Dis. 2005,11(6):844-50).
Compound 1 and other antibiotics were tested for their inhibitory activity against the MRSA isolates using the broth microdilution guidelines as stipulated by the Clinical and Laboratory Standards Institute.

[2] = system: S. aureus (MSSA, CA-MRSA, HA-MRSA, VISA, VRSA); test: CANWARD 2007 / NARSA gram-positive cocci, CLSI broth microdilution; type: cell-based, Staphylococcus aureus; set-up: MIC50 / MIC90: unit not given here
Description: From January-December 2007, 12 hospitals across Canada submitted isolates from patients attending hospital clinics, emergency rooms, medical and surgical wards, and intensive care units. 7881 isolates (CANWARD 2007) were collected including 3473 gram-positive cocci. Susceptibility testing for Compound 1 and Levofloxacin was performed using the Clinical and Laboratory Standards Institute broth microdilution.

[3] = MRSA / USA100, USA 100/800 (HA-MRSA)
[4] = MRSA / USA200, USA 200 (HA-MRSA)
[5] = MRSA / USA300, USA 300 (CA-MRSA)
[6] = MRSA / USA400, USA 400 (CA-MRSA)
[7] = MRSA / USA600, USA 600 (HA-MRSA)

SMILES: COc1c(N2C[C@@H](C)C[C@H](N)C2)ccc2c(=O)c(C(=O)O)cn(C3CC3)c12 [Compound 1, (3S,5S)-7-[3-amino-5-methyl-piperidinyl]-1-cyclopropyl-1,4-dihydro-8-methoxy-4-oxo-3-quinolinecarboxylic acid]
- activity against community-associated versus healthcare-associated MRSA strains (in words) ([1]; CA-MRSA vs HA-MRSA strains): more active against community-associated-MRSA strains than healthcare-associated-MRSA strains
- inhibition of MRSA (in words) ([1]; MRSA isolates): effectively inhibited
- MIC50 [1, 3]: 4 µg/mL (≈ 10.8 µM)
- MIC90 [1, 3]: > 4 µg/mL
- MIC50 [1, 4]: 2 µg/mL (≈ 5.38 µM)
- MIC90 [1, 4]: 2 µg/mL (≈ 5.38 µM)
- MIC50 [1, 5]: 0.5 µg/mL (≈ 1.35 µM)
- MIC90 [1, 5]: 0.5 µg/mL (≈ 1.35 µM)
- MIC50 [1, 6]: 0.06 µg/mL (≈ 0.162 µM)
- MIC90 [1, 6]: 0.06 µg/mL (≈ 0.162 µM)
- MIC50 [1, 7]: 2 µg/mL (≈ 5.38 µM)
- MIC90 [1, 7]: 2 µg/mL (≈ 5.38 µM)
- MIC50 ([1]; MRSA (n = 193)): 4 µg/mL (≈ 10.8 µM)
- MIC90 ([1]; MRSA (n = 193)): > 4 µg/mL
- MIC ([1]; MRSA (n = 193), read-out: MIC Range Max): > 4 µg/mL
- MIC ([1]; MRSA (n = 193), read-out: MIC Range Min): 0.03 µg/mL (≈ 0.0808 µM)
- MIC50 ([2]; CA-MRSA (23)): 0.25
- MIC90 ([2]; CA-MRSA (23)): 0.5
- MIC50 ([2]; HA-MRSA (91)): 4/>4
- MIC90 ([2]; HA-MRSA (91)): 4/>4
- activity compared with Levofloxacin (in words) ([2]; MRSA, VISA, VRSA): more active than Levofloxacin
- MIC50 ([2]; MSSA (372)): 0.03
- MIC90 ([2]; MSSA (372)): 0.12
- MIC50 ([2]; VISA (12), NARSA isolates): 1
- MIC90 ([2]; VISA (12), NARSA isolates): 2
- median MIC (single value under head MIC50/MIC90) ([2]; VRSA (7), NARSA isolates): 2
